13 molecules from patent publication US10988477B2 (Merck Patent GmbH, priority 2018, dated 2021) can be followed below.

pKi: −log10 of the molar value.

Sequence of GCN2 kinase (Q9P2K8 whole entry): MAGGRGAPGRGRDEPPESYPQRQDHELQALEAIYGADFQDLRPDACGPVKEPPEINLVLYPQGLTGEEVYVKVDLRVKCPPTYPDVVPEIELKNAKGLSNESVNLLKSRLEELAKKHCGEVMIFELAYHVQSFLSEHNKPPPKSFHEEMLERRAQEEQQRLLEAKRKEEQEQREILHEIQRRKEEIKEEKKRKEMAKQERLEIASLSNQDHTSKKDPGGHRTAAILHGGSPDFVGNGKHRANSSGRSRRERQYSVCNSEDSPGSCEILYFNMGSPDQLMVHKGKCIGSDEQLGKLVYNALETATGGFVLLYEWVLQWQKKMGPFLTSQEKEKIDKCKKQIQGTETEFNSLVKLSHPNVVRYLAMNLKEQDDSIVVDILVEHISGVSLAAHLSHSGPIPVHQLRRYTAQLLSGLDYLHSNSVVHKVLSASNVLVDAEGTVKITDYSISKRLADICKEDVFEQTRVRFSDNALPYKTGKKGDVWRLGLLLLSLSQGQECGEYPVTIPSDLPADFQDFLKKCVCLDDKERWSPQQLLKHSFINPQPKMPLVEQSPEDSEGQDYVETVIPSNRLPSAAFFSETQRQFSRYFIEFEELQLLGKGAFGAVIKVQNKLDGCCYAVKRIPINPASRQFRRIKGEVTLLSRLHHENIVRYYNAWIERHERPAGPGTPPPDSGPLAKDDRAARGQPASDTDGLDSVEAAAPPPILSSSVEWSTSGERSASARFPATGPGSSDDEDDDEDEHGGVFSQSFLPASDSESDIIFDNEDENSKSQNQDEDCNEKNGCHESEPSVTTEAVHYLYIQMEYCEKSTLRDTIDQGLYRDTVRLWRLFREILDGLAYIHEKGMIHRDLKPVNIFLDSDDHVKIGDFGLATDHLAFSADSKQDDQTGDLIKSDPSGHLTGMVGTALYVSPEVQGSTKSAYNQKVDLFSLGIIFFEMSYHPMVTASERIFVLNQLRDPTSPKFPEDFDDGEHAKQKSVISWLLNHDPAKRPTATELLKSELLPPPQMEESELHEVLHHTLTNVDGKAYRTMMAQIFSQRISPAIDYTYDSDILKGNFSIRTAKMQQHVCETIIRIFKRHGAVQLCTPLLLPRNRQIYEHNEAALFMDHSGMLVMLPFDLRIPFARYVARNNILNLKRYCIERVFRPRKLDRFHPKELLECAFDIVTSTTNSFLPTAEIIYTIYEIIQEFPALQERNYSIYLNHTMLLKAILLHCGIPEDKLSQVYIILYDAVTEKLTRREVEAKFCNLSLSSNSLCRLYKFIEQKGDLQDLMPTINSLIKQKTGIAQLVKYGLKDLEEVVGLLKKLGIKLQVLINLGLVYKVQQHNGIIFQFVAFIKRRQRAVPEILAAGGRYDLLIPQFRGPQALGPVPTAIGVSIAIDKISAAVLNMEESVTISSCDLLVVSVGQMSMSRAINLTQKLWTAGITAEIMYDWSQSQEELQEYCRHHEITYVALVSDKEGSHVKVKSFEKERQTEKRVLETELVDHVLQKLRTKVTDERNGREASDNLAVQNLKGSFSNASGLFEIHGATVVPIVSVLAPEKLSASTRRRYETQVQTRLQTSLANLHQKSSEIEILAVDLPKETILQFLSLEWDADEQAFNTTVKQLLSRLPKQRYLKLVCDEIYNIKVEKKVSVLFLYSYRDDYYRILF

For one assay, the target named is GCN2 kinase (Homo sapiens, UniProt Q9P2K8). The assay can be described thus: GCN2 enzyme inhibition assay (Transcreener ADP2 fluorescence polarization). It counts as biochemical. The note with it: Enzyme activity for compounds of Formula IV; Ki(app), 280 μM ATP, 25° C. The protocol:
Compounds were screened for their ability to inhibit GCN2 kinase activity using a Transcreener® ADP^2 fluorescence polarization assay that detects ADP levels (BellBrook Labs, WI). Assays were carried out in a buffer consisting of 25 mM Tris-HCl (pH 7.5), 50 mM NaCl, 10 mM MgCl2 and 1 mM DTT. Final substrate concentrations were 280 μM ATP and 200 μM peptidic substrate ([…]-OH [(RS)7], Bachem, Switzerland). Assays were carried out at 25° C. in the presence of a (typical) final concentration of 4 nM GCN2 kinase. An assay buffer containing GCN2 kinase and (RS)7 was prepared. 4.7 μL of this stock solution was placed per well of a black, low volume, 384-well microtitre plate (e.g. catalogue number 3676, Corning Inc., NY). To this was added […] of DMSO containing serial dilutions of the test compound (typical final concentrations of test compound were 0 to 8 μM). The plate was incubated for 10 minutes at 25° C. prior to the addition of 4.7 μL of ATP stock buffer to initiate the enzyme reaction. The reaction was allowed to proceed for 1 hour at 25° C., prior to the addition of 10 μL detection buffer (consisting of appropriate concentrations of ADP^2 antibody and ADP Alexa633 tracer in 1× stop and detect buffer as supplied by BellBrook Labs). […] Percentage inhibition of enzyme activity was then calculated at each compound dose. IC50 and Ki(app) (using known assay and kinetic parameters) values were calculated from percentage inhibition data using a non-linear, tight-binding algorithm. All data analysis was undertaken using the Screener® software package (Genedata, Switzerland).
(In general: Polarisation of emitted light reports the rotation of a fluorescent probe.)
As for `CC1CN(c2ccnc(-c3cnc4cnc(C(F)(F)F)cn34)n2)C(C)C(c2cnc[nH]2)N1` (single isomer, unassigned) [IV-549, 3-(4-(3-(1H-Imidazol-5-yl)-2,5-dimethylpiperazin-1-yl)pyrimidin-2-yl)-6-(trifluoromethyl)imidazo[1,2-a]pyrazine], the pKi (commonly the negative decadic logarithm of the Ki, by convention in mol/L) was 6.00 to 7.00. Same read-out and setting: for `NC(=O)C1CCN(c2ccnc(-c3cnc4cnc(C(F)(F)F)cn34)n2)C1` (stereo not shown) [IV-598, 1-(2-(6-(Trifluoromethyl)imidazo[1,2-a]pyrazin-3-yl)pyrimidin-4-yl)pyrrolidine-3-carboxamide] the value was 6.00 to 7.00; for `NC(=O)c1cn2c(-c3cccc(N4CCCC(CO)C4)n3)cnc2cn1` (stereo not shown) [IV-220, 3-(6-(3-(Hydroxymethyl)piperidin-1-yl)pyridin-2-yl)imidazo[1,2-a]pyrazine-6-carboxamide], 7.00 to 8.00; for `COCC1CN(c2ccnc(-c3cnc4cnc(C(F)(F)F)cn34)n2)CC(C)O1` (stereo not shown) [IV-587, 2-(Methoxymethyl)-6-methyl-4-(2-(6-(trifluoromethyl)imidazo[1,2-a]pyrazin-3-yl)pyrimidin-4-yl)morpholine], 6.00 to 7.00.

Consider `CC(=O)N1CCN(c2ccnc(-c3cnc4cnc(C(N)=O)cn34)n2)C(C)C1` (stereo not shown) [IV-272, 3-(4-(4-Acetyl-2-methylpiperazin-1-yl)pyrimidin-2-yl)imidazo[1,2-a]pyrazine-6-carboxamide], for which the pKi was 6.00 to 7.00.

Molecule `CCN1C(C)CN(c2ccnc(-c3cnc4cnc(C(F)(F)F)cn34)n2)C(C)C1c1cn[nH]c1` (stereo not shown) [IV-292, 3-(4-(4-Ethyl-2,5-dimethyl-3-(1H-pyrazol-4-yl)piperazin-1-yl)pyrimidin-2-yl)-6-(trifluoromethyl)imidazo[1,2-a]pyrazine] had a pKi of more than 8.00. The same measure, in the same setting: for `O=C1CCCN1CC1CCN(c2ccnc(-c3cnc4cnc(C(F)(F)F)cn34)n2)C1` (stereo not shown) [IV-557, 1-((1-(2-(6-(Trifluoromethyl)imidazo[1,2-a]pyrazin-3-yl)pyrimidin-4-yl)pyrrolidin-3-yl)methyl)pyrrolidin-2-one] the value was 6.00 to 7.00; for `N#CC1CCCCN1c1ccnc(-c2cnc3cnc(C(N)=O)cn23)n1` (stereo not shown) [IV-258, 3-(4-(2-Cyanopiperidin-1-yl)pyrimidin-2-yl)imidazo[1,2-a]pyrazine-6-carboxamide], 6.00 to 7.00; for `O=C1NC[C@@H]2CCN(c3ccnc(-c4cnc5cnc(C(F)(F)F)cn45)n3)C[C@H]12` [IV-515, (3aR,7aR)-5-(2-(6-(Trifluoromethyl)imidazo[1,2-a]pyrazin-3-yl)pyrimidin-4-yl)octahydro-3H-pyrrolo[3,4-a]pyridin-3-one], 6.00 to 7.00.

Staying with this assay, now noted: compounds of Formula II; 280 μM ATP, 4 nM GCN2 kinase.
`CC1CN(c2cc(-c3cnc4ccc(C(F)F)nn34)ncn2)CC(CO)O1` (stereo not shown) [II-615, (4-(6-(6-(Difluoromethyl)imidazo[1,2-b]pyridazin-3-yl)pyrimidin-4-yl)-6-methylmorpholin-2-yl)methanol]: the negative-log Ki (pKi) was 6.00 to 8.00. Molecule `CS(C)(=O)=NCC1CCCN(c2cc(-c3cnc4ccc(C(F)F)nn34)ncn2)C1` (stereo not shown) [II-574, (((1-(6-(6-(Difluoromethyl)imidazo[1,2-b]pyridazin-3-yl)pyrimidin-4-yl)piperidin-3-yl)methyl)imino)dimethyl-λ^6-sulfanone] had a pKi of 6.00 to 8.00. `[2H]C([2H])([2H])N1CCN(c2cc(-c3cnc4ccc(C(F)F)nn34)ncn2)C(C)C1CNS(C)(=O)=O` (stereo not shown) [II-561, N-((4-(6-(6-(Difluoromethyl)imidazo[1,2-b]pyridazin-3-yl)pyrimidin-4-yl)-3-methyl-1-(methyl-d3)piperazin-2-yl)methyl)methanesulfonamide] had a pKi of 6.00 to 8.00. Still for that read-out and setting: the same measure for `CC1CCN(c2cc(-c3cnc4ccc(C(F)F)nn34)ncn2)CC1N=S(C)(C)=O` (single isomer, unassigned) [II-632, ((1-(6-(6-(Difluoromethyl)imidazo[1,2-b]pyridazin-3-yl)pyrimidin-4-yl)-4-methylpiperidin-3-yl)imino)dimethyl-λ^6-sulfanone]: 6.00 to 8.00.
